We go through 28 molecules from patent US10647721B2, “Bicyclic heteroaryl derivatives” (Hoffmann-La Roche Inc., priority 2016, dated 2020).

A word on the EC50: it is the concentration at which the effect is half-maximal.

The subject of the test is γ-secretase. Nature of the test: Cellular γ-secretase assay (inhibition of Aβ42 secretion, AlphaLisa). The format is cell-based. Particulars: human neuroglioma H4 cells overexpressing human APP695 Swedish double mutation, 24 hr compound incubation. Here is the method: Cellular γ-Secretase Assay
Human neuroglioma H4 cells overexpressing human APP695 with the Swedish double mutation (K595N/M596L) were plated at 30,000 cells/well/100 μl in 96-well plates in IMDM media containing 10% FCS, 0.2 mg/l Hygromycin B and incubated at 37° C., 5% CO2.
3-4 hr post plating, compounds are a diluted in media and 50 μl is added as 1.5-fold concentrate to achieve the final concentration. Compound incubation is performed for 24 hr. Final doses typically range from 4 μm down to 0.0013 μm in half-log steps resulting in a eight point dose response curve.
Appropriate controls using vehicle only and reference compound were applied to this assay. The final concentration of Me2SO was 0.4%.
After incubation at 37° C., 5% CO2, the supernatant was subjected to quantification of secreted Aβ42 by the means of an AlphaLisa assay kit (Human Amyloid beta 1-42 Kit: Cat # AL203C, Perkin Elmer). 20 μl of the cell culture supernatant was transferred to an assay plate. Then 10 μl of a mixture of the AlphaLisa coupled capture antibody and the biotinylated detection antibody was added and incubated for 3 hours at room temperature while softly shaking the assay plate. After a further addition of 20 μl of the Donor beads the assay plate was incubated for 30 min at room temperature and constant shaking without exposure to direct light. The assay plate was then read on a Paradigm AlphaLisa Reader using the build-in program with excitation at 680 nm and emission at […].
The measured signals were then used to calculate IC50 values for inhibition of Aβ42 secretion by nonlinear regression fit analysis using XLfit 5.3 software (IDBS).
In general terms: Alpha assays give light when donor and acceptor beads are brought close together.
With `COc1cc(Nc2nc3n(n2)CCCN3c2ccc(F)cc2)ccc1-n1cnc(Cl)c1` [Example 34, N-[4-(4-chloroimidazol-1-yl)-3-methoxy-phenyl]-4-(4-fluorophenyl)-6,7-dihydro-5H-[1,2,4]triazolo[1,5-a]pyrimidin-2-amine], the EC50 was determined as 10 nM.

Regarding `Cc1ncn(-c2ccc(Nc3nc4n(n3)CCCN4c3ccc(F)c(F)c3)cc2F)n1` [Example 11, 4-(3,4-difluorophenyl)-N-[3-fluoro-4-(3-methyl-1,2,4-triazol-1-yl)phenyl]-6,7-dihydro-5H-[1,2,4]triazolo[1,5-a]pyrimidin-2-amine], the EC50 stood at 34.5 nM.

Molecule `COc1cc(Nc2nc3n(n2)CCN3c2ccc(C(F)(F)F)cc2)ccc1-n1cnc(Cl)c1` [Example 44, N-[4-(4-chloroimidazol-1-yl)-3-methoxy-phenyl]-4-[4-(trifluoromethyl)phenyl]-5,6-dihydroimidazo[1,2-b][1,2,4]triazol-2-amine] displayed an EC50 of 65.4 nM.

In turn, `COc1cc(Nc2nc3n(n2)CCCN3c2ccc(F)cc2)ccc1-c1cnc(C)o1` [Example 43, 4-(4-fluorophenyl)-N-[3-methoxy-4-(2-methyloxazol-5-yl)phenyl]-6,7-dihydro-5H-[1,2,4]triazolo[1,5-a]pyrimidin-2-amine] displayed an EC50 of 12.6 nM.

For the molecule `COc1cc(Nc2nc3n(n2)CCCN3c2ccccc2)ccc1-n1cnc(C)n1` [Example 48, N-[3-methoxy-4-(3-methyl-1,2,4-triazol-1-yl)phenyl]-4-phenyl-6,7-dihydro-5H-[1,2,4]triazolo[1,5-a]pyrimidin-2-amine], a half-maximal effect (EC50) was put at 94.7 nM.

With `Cc1cn(-c2ccc(Nc3nc4n(n3)CCCN4c3ccc(F)c(F)c3)cc2)nn1` [Example 47, 4-(3,4-difluorophenyl)-N-[4-(4-methyltriazol-1-yl)phenyl]-6,7-dihydro-5H-[1,2,4]triazolo[1,5-a]pyrimidin-2-amine], the EC50 came to 52.1 nM.

Turning to `COc1cc(Nc2nc3n(n2)CCCN3c2cccc(F)c2)ccc1-n1cnc(C)n1` [Example 31, 4-(3-fluorophenyl)-N-[3-methoxy-4-(3-methyl-1,2,4-triazol-1-yl)phenyl]-6,7-dihydro-5H-[1,2,4]triazolo[1,5-a]pyrimidin-2-amine], the EC50 worked out at 30.4 nM.

The molecule `N#Cc1cc(Nc2nc3n(n2)CCCN3c2ccc(F)c(F)c2)ccc1-n1cnc(C(F)F)c1` [Example 26, 2[4-(difluoromethyl)imidazol-1-yl]-5-[[4-(3,4-difluorophenyl)-6,7-dihydro-5H-[1,2,4]triazolo[1,5-a]pyrimidin-2-yl]amino]benzonitrile] came in with an EC50 of 23.8 nM.

With `COc1cc(Nc2nc3n(n2)CCCN3c2ccc(F)c(F)c2)ccc1-n1cnc(Cl)c1` [Example 6, N-[4-(4-chloroimidazol-1-yl)-3-methoxy-phenyl]-4-(3,4-difluorophenyl)-6,7-dihydro-5H-[1,2,4]triazolo[1,5-a]pyrimidin-2-amine], a half-maximal response (EC50) required 8.3 nM.

In turn, `Fc1ccc(N2CCCn3nc(Nc4ccc(-n5cnc(Cl)c5)c(Cl)c4)nc32)cc1F` [Example 28, N-[3-chloro-4-(4-chloroimidazol-1-yl)phenyl]-4-(3,4-difluorophenyl)-6,7-dihydro-5H-[1,2,4]triazolo[1,5-a]pyrimidin-2-amine] yielded an EC50 of 137 nM.

With `COc1cc(Nc2nc3n(n2)CCCCN3c2ccc(F)c(F)c2)ccc1-n1cnc(C)n1` [Example 8, 4-(3,4-difluorophenyl)-N-[3-methoxy-4-(3-methyl-1,2,4-triazol-1-yl)phenyl]-5,6,7,8-tetrahydro-[1,2,4]triazolo[1,5-a][1,3]diazepin-2-amine], a half-maximal response (EC50) required 35.8 nM.

In turn, `COc1cc(Nc2nc3n(n2)CCCN3c2ccc(F)c(F)c2)ccc1-n1cnc(C(F)(F)F)c1` [Example 3, 4-(3,4-difluorophenyl)-N-[3-methoxy-4-[4-(trifluoromethyl)imidazol-1-yl]phenyl]-6,7-dihydro-5H-[1,2,4]triazolo[1,5-a]pyrimidin-2-amine] gave an EC50 of 37 nM.

Regarding `COc1cc(Nc2nc3n(n2)CCCCN3c2ccc(F)c(F)c2)ccc1-n1cnc(Cl)c1` [Example 9, N-[4-(4-chloroimidazol-1-yl)-3-methoxy-phenyl]-4-(3,4-difluorophenyl)-5,6,7,8-tetrahydro-[1,2,4]triazolo[1,5-a][1,3]diazepin-2-amine], the midpoint of the response, the EC50, lay at 22.4 nM.

The molecule `Cc1ncn(-c2ccc(Nc3nc4n(n3)CCCN4c3ccc(F)c(F)c3)cc2)n1` [Example 29, 4-(3,4-difluorophenyl)-N-[4-(3-methyl-1,2,4-triazol-1-yl)phenyl]-6,7-dihydro-5H-[1,2,4]triazolo[1,5-a]pyrimidin-2-amine] showed an EC50 of 56.1 nM.

In the case of `COc1cc(Nc2nc3n(n2)CCCN3c2ccc(F)cc2)cnc1-n1cnc(Cl)c1` [Example 38, N-[6-(4-chloroimidazol-1-yl)-5-methoxy-3-pyridyl]-4-(4-fluorophenyl)-6,7-dihydro-5H-[1,2,4]triazolo[1,5-a]pyrimidin-2-amine], the response was half-maximal at 13.8 nM (EC50).

`COc1cc(Nc2nc3n(n2)CCCN3c2ccc(F)cc2)ccc1-n1cnc(C)n1` [Example 33, 4-(4-fluorophenyl)-N-[3-methoxy-4-(3-methyl-1,2,4-triazol-1-yl)phenyl]-6,7-dihydro-5H-[1,2,4]triazolo[1,5-a]pyrimidin-2-amine] gave an EC50 of 35.2 nM.

As to `COc1cc(Nc2nc3n(n2)CCCN3c2ccc(F)c(F)c2)ccc1-n1cnc(C)n1` [Example 2, 4-(3,4-difluorophenyl)-N-[3-methoxy-4-(3-methyl-1,2,4-triazol-1-yl)phenyl]-6,7-dihydro-5H-[1,2,4]triazolo[1,5-a]pyrimidin-2-amine], the EC50 worked out at 14.2 nM.

Consider `COc1cc(Nc2nc3n(n2)CCN3c2ccc(F)c(F)c2)ccc1-n1cnc(Cl)c1` [Example 46, N-[4-(4-chloroimidazol-1-yl)-3-methoxy-phenyl]-4-(3,4-difluorophenyl)-5,6-dihydroimidazo[1,2-b][1,2,4]triazol-2-amine], for which the midpoint of the response, the EC50, lay at 40.4 nM.

In the case of `N#Cc1cc(Nc2nc3n(n2)CCCN3c2ccc(F)c(F)c2)ccc1-n1cnc(Cl)c1` [Example 24, 2-(4-chloroimidazol-1-yl)-5-[[4-(3,4-difluorophenyl)-6,7-dihydro-5H-[1,2,4]triazolo[1,5-a]pyrimidin-2-yl]amino]benzonitrile], the EC50 is 9 nM.

Molecule `COc1cc(Nc2nc3n(n2)CCCN3c2ccc(F)c(F)c2F)ccc1-n1cnc(C)n1` [Example 16, N-[3-methoxy-4-(3-methyl-1,2,4-triazol-1-yl)phenyl]-4-(2,3,4-trifluorophenyl)-6,7-dihydro-5H-[1,2,4]triazolo[1,5-a]pyrimidin-2-amine] returned an EC50 of 32.9 nM.

For the molecule `COc1cc(Nc2nc3n(n2)CCCN3c2ccc(F)c(F)c2)cnc1-n1cnc(Cl)c1` [Example 5, N-[6-(4-chloroimidazol-1-yl)-5-methoxy-3-pyridyl]-4-(3,4-difluorophenyl)-6,7-dihydro-5H-[1,2,4]triazolo[1,5-a]pyrimidin-2-amine], a half-maximal effect (EC50) was put at 21.4 nM.

For the molecule `COc1cc(Nc2nc3n(n2)CCCN3c2ccc(F)c(F)c2)ccc1-c1cnn(C)c1` [Example 20, 4-(3,4-difluorophenyl)-N-[3-methoxy-4-(1-methylpyrazol-4-yl)phenyl]-6,7-dihydro-5H-[1,2,4]triazolo[1,5-a]pyrimidin-2-amine], the EC50 is 28.9 nM.

In turn, `Cc1ncn(-c2ccc(Nc3nc4n(n3)CCCN4c3ccc(F)cc3)cc2OC(F)F)n1` [Example 37, N-[3-(difluoromethoxy)-4-(3-methyl-1,2,4-triazol-1-yl)phenyl]-4-(4-fluorophenyl)-6,7-dihydro-5H-[1,2,4]triazolo[1,5-a]pyrimidin-2-amine] yielded a concentration for a half-maximal effect (EC50) of 34.2 nM.

In the case of `Fc1ccc(N2CCCn3nc(Nc4ccc(-n5cnc(Cl)c5)cc4)nc32)cc1F` [Example 23, N-[4-(4-chloroimidazol-1-yl)phenyl]-4-(3,4-difluorophenyl)-6,7-dihydro-5H-[1,2,4]triazolo[1,5-a]pyrimidin-2-amine], the EC50 was determined as 31.2 nM.

In turn, `Cc1ncnn1-c1ccc(Nc2nc3n(n2)CCCN3c2ccc(F)c(F)c2)cc1F` [Example 13, 4-(3,4-difluorophenyl)-N-[3-fluoro-4-(5-methyl-1,2,4-triazol-1-yl)phenyl]-6,7-dihydro-5H-[1,2,4]triazolo[1,5-a]pyrimidin-2-amine] gave an EC50 of 24.8 nM.

`COc1cc(Nc2nc3n(n2)CCCN3c2cccc(F)c2)ccc1-n1cnc(Cl)c1` [Example 32, N-[4-(4-chloroimidazol-1-yl)-3-methoxy-phenyl]-4-(3-fluorophenyl)-6,7-dihydro-5H-[1,2,4]triazolo[1,5-a]pyrimidin-2-amine] registered an EC50 of 14.1 nM.

As to `Cc1ncn(-c2ccc(Nc3nc4n(n3)CCCN4c3ccc(F)c(F)c3)cc2OC(F)F)n1` [Example 1, N-[3-(difluoromethoxy)-4-(3-methyl-1,2,4-triazol-1-yl)phenyl]-4-(3,4-difluorophenyl)-6,7-dihydro-5H-[1,2,4]triazolo[1,5-a]pyrimidin-2-amine], a half-maximal effect (EC50) was put at 16.6 nM.

In turn, `Cc1ncc(-c2ccc(Nc3nc4n(n3)CCCN4c3ccc(F)c(F)c3)cc2F)o1` [Example 19, 4-(3,4-difluorophenyl)-N-[3-fluoro-4-(2-methyloxazol-5-yl)phenyl]-6,7-dihydro-5H-[1,2,4]triazolo[1,5-a]pyrimidin-2-amine] returned a concentration giving a half-maximal response (EC50) of 20.4 nM.
